The text below walks through data of patent US8100830B2, “Non-therapeutic methods of evaluating skin neurosensitivity, kit and use of a kit for implementing the method” (Societe l'Oreal S.A., priority 2002, dated 2012).

The structures appear in SMILES notation.

The subject of data set [1] is skin of a non-selective population of 150 women. Briefly: Example 7: skin neurosensitivity threshold of 150 women with the kit of Example 3 (capsaicin solutions C1-C5). The class given is in vivo, human. The protocol: This kit allows approximately 50 instances of use and comprises in a box (B) the following elements: • 1. a holder P allowing […] bottles as described in section 2 of this list to be held upright; • 2. 5 bottles F3 of 20 ml containing respectively 15 ml of solutions C1-C5 (3.16×10^−5% (C1), 1×10^−4% (C2), 3.16×10^−4% (C3), 1×10^−3% (C4) and 3.16×10^−3% (C5)) and a bottle F3T containing 15 ml of a 10% aqueous-alcoholic solution T; these bottles are shown in FIG. 2 and correspond to those defined in section 4 of Example 2; • 3. 80 standard cotton buds CT; • 4. a usage note containing the following elements: • a) use instructions for the implementation of the test, reproducing the protocol of Example 1, using the cotton buds and the bottles F3C1-5 and F3T; the bottles must be stored at 4° C. between two instances of use and discarded after one week of use. • b) a calibration system (atlas) allowing interpretation of the results (C1: excessively sensitive skin; C2: highly sensitive skin; C3: moderately sensitive skin; C4: relatively insensitive skin; C5: virtually insensitive skin; C5 not detected: completely insensitive skin).
Use of the Kit of Example 3 to Determine the Skin Neurosensitivity Threshold of 150 Women:
Study performed in a single-blind procedure on a non-selective population of 150 women aged from 18 to 60 years living in Paris or the surrounding region.
It is interesting to note that the sensations reported at the level of the detection threshold (characterized by a sensation detected on the side where the capsaicin was applied, lasting for at least 30 seconds) are highly varied (presence, pins and needles, stinging, hotness, etc.)

The format of data set [2] is physicochemical. The source says:
When the peripheral nervous system stimulant is capsaicin, a preferred vehicle is an aqueous-alcoholic solution, advantageously an aqueous-ethanolic solution, containing from 1% to 50% of ethanol in water, advantageously from 5% to 20%, preferably from 8% to 15% and more preferably 10%.

For data set [3], the system named is nasogenial sulci of healthy subjects. Briefly: Example 1: detection threshold test, increasing capsaicin concentrations C1-C4 applied to the nasogenial sulci against vehicle. The class given is in vivo, human. The conditions noted are these: 13 healthy subjects, 3.3×10^−5% to 1×10^−3% in ethanol 10%, water 90%. The protocol:
Capsaicin was tested in the form of aqueous-alcoholic solutions (ethanol 10%, water 90%).
Experimental Design: • Randomized, single-blind study, controlled • 13 healthy subjects of both sexes • 4 capsaicin solutions tested: 3.3×10^−5% (C1), 1×10^−4% (C2), 3.3×10^−4% (C3), 1×10^−3% (C4)
1st step: Simultaneous application to the nasogenial sulci on each side of the face of the vehicle, using impregnated cotton buds, in order to acclimatize the volunteer to the sensations induced by application of the vehicle. Waiting time of 3 minutes.
2nd step: Application of the vehicle to one side and of the capsaicin solution at concentration C1 on the other. After 3 minutes, ask whether the subject has perceived a difference between the 2 sides. If the subject describes an unattractive sensation on the side which has received the capsaicin, stop the test and allocate C1 as the detection threshold. If not, go immediately to step 3.
3rd step: Application of solution C2 to the side which has received the vehicle in […] and of the vehicle to the other side. After 3 minutes, ask whether the subject has perceived a difference between the 2 sides. If the subject describes a particular sensation on the side which has received the capsaicin, stop the test and allocate C2 as the detection threshold. If not, go immediately to step 4. […]

Where [4] appears, read: 109 women who detected a concentration, intensity scale 1 to 5.

On to `COc1cc(CNC(=O)CCCC/C=C/C(C)C)ccc1O` [capsaicin], for which, in data set [1] (74 of the 150 subjects), the delay before appearance of the sensation, maximum was 120 s and the delay before appearance of the sensation, minimum came to 60 s. Besides, the “delay before appearance of the sensation, mean” value in data set [1] (74 of the 150 subjects, at the detection threshold) stood at 79.9 s. In data set [1] (setting [4]), the “sensations at level 2 (slight but perceptible) at the detected concentration” value is 95%, the “sensations at level 3 (moderately clearly perceptible) at the detected concentration” value is given as 5% and the “sensations of level 4 (substantial) or painful at the detected concentration” value was “No sensation of level 4 (“substantial”) or (“painful”) was reported”. For the same molecule, in data set [1] (150 women, C1 3.16×10^−5%, C2 1×10^−4%, C3 3.16×10^−4%), the “subjects who detected C1, C2 or C3 (sensitive to highly sensitive population)” value came to 56%. For the same molecule, in data set [1] (150 women, C4 1×10^−3%, C5 3.16×10^−3%), the “subjects who detected C4 or C5 or did not detect any concentration (virtually or completely insensitive population)” value is given as 44%. In data set [1] (of 150 women, C1-C5), the “women who detected a concentration” value is reported as 109. For the same molecule, the “stability over time of aqueous-ethanolic solutions” value in data set [2] is reported as “particularly stable over time”. Besides, the “tolerance of the test (pain) as evaluated by the subjects” value in data set [3] was “absolutely painless for all of the 13 subjects”.
